Data published in patent US10927101B2, “Neopetrosides A and B, and synthesis method thereof” (INJE UNIVERSITY INDUSTRY-ACADEMIC COOPERATION FOUNDATION, priority 2016, dated 2021).
“Also recorded” adds a separate entry of the source.

Experiments:
[1] = Solubility of NPS A in water and organic solvents; type: physicochemical
[2] = target: mTOR (mammalian target of rapamycin) (Homo sapiens, UniProt P42345); experiment: Kinase screening and dose-dependence, mTOR; type: biochemical
Description: (§1) First, kinases regulated by NPS A were screened using a set of kinases related to cardiovascular diseases and diabetes.
(§2) The activity of GSK-3 alpha, GSK-3 beta and mTOR kinase regulated by NPS A was measured to determine the half maximal inhibition dosage.

[3] = system: candidate kinases of the first type (cardiovascular diseases); experiment: Kinase screening, set of kinases related to cardiovascular diseases; type: biochemical
Description: as §1

[4] = system: h9c2 cells; experiment: Mitochondrial ATP level (Mitochondrial ToxGlo assay); type: cell-based; details: h9c2 cells, 0, 3 or 10 μM NPS A for 1 hour
Description: Furthermore, mitochondrial ATP levels were measured using the Mitochondrial T ToxGlo™ assay (Promega, Madison, Wis., USA) according to the manufacturer's instructions.
Briefly, h9c2 cells were dispensed at 2×10^6 cells/well in a 60 mm tissue culture plate and cultured for 16 hours and treated with 0, 3, or 10 μM NPS A for 1 hour. The treated cells were all collected and resuspended by pipetting until the cells were uniformly dispersed. The resuspended h9c2 cells were dispensed at 2×10^4 cells/well in a 96-well plate and the plates were centrifuged at 200×g for 10 minutes to remove the medium. Thereafter, 50 μL of fresh medium (except for glucose, containing 10 mM galactose) was added.
The cells were incubated in a humidified incubator at 37° C. supplied with CO2 for 90 minutes. Then, the assay solution (100 μL) was added to the plate and reacted at room temperature for 30 minutes. Luminescence was measured using a luminometer (Molecular Device, Sunnyvale, Calif., USA).

[5] = system: h9c2 cells; experiment: Glycolysis activity, capacity and reserve with XF24 analyzer; type: cell-based; details: 10 μM NPS A compared to 20 μM or 30 μM, 1 hour
Description: After treating h9c2 cells with NPS A, the glycolysis activity, the glycolysis capacity and the glycolysis reserve were confirmed using an XF24 analyzer.
h9c2 cells were treated sequentially with 10 mM glucose (G), 1 μM oligomycin (O) and 10 mM 2-dioxyglucose (2DG), treated with NPS A for 1 hour and then measured with an XF24 analyzer.

[6] = system: h9c2 cells; experiment: MTT toxicity assay in h9c2 myocardial cells; type: cell-based; details: 24 hours treatment
Description: In h9c2 cells, myocardial cells, the toxicity of NPS A extracted from Neopetrosia sp. Of Example 1 was confirmed.
The h9c2 cells were dispensed at 2×10^4 cells/well in a 96-well tissue culture plate and cultured for 16 hours. Thereafter, various concentrations of NPS A were treated and cultured for additional 24 hours.
After the culture, a quantitative colorimetric assay using MTT(3-(4,5-dimethylthiazol-2-yl)-2,5-diphenyltetrazolium bromide (Sigma-Aldrich, St. Louis, Mo., USA) was performed to confirm the survival rate of the cells.
The degree of reduction of MTT to intracellular formazan was confirmed by measuring the optical density at 570 nm using a microplate reader (Molecular device, Sunnyvale, Calif., USA).

[7] = target: GSK-3β (Homo sapiens, UniProt P49841); experiment: Kinase screening and IC50 determination, GSK-3β; type: biochemical
Description: as §1, §2

[8] = system: mitochondria extracted from the heart of rats; experiment: Oxidative phosphorylation in mitochondria extracted from NPS A-treated rat heart; details: mitochondria of I/R rat heart, NPS A treatment
[9] = system: ischemic reperfusion heart model; experiment: Ischemic reperfusion heart model (Langendorff perfused rat heart); type: in vivo, SD rats
Description: 8-week-old male SD rats (200-250 g) were anesthetized by intraperitoneal injection of sodium pentobarbital (100 mg/kg). The chest cavity was exposed and a glass cannula was inserted into the aorta. The heart was quickly cut into thoracotomy, perfused with a normal Tyrode's solution in a Langendorff system and equilibrated with 95% O2 and 5% CO2 at 37° C. for 10 min to remove all blood. The heart of the rat was extirpated and the experiment was performed using a non-circulating system. First, ischemic reperfusion (I/R) model and drug treatment group (NPS A treatment; NPS A 10 μM treatment after ischemia reperfusion) were performed and hypoxic solution was flowed for 30 minutes. After 30 minutes, the normal tyrode solution and NPS A were treated together to restore cardiac function and confirm changes in electrocardiogram. […] After global ischemia (initiating reperfusion), 10 μM of NPS A was administered for 30 minutes.

[10] = target: GSK-3α (Glycogen synthase kinase-3α) (Homo sapiens, UniProt P49840); experiment: Kinase screening and IC50 determination, GSK-3α; type: biochemical
Description: as §1, §2

[11] = system: h9c2 cells; experiment: Oxygen consumption rate (OCR) / ECAR measurement with XF24 analyzer; type: cell-based
Description: For this, the basal oxygen consumption rate (OCR), respiratory related to ATP (adenosine triphosphate), proton leak, maximal capacity and mitochondrial OCR were confirmed.
First, to measure OCR, h9c2 cells were dispensed at 2×10^4 cells/well in an XF24 cell plate (Seahorse Bioscience, Billerica, Mass., USA) and cultured for 16 hours. Thereafter, cells were dispensed with various concentrations of NPS A and cultured for another one hour. After 1 hour, the medium was replaced with 500 μL of XF assay medium-modified DMEM (XF Assay Medium-modified DMEM, Seahorse Bioscience, Billerica, Mass., USA) and incubated for 1 hour in a incubator at 37° C. in absence of CO2.
OCR was measured using an XF24 analyzer (Seahorse Bioscience, Billerica, Mass., USA) and XF24 software. After OCR measurement, the XF 24 assay results were normalized to the cell number and the number of cells in each well was counted by a Luna™ automated cell counter (Logos, Annandale, Va., USA).

[12] = kinase screening, kinases related with diabetes

Sequence of GSK-3β (P49841 whole entry, species assumed): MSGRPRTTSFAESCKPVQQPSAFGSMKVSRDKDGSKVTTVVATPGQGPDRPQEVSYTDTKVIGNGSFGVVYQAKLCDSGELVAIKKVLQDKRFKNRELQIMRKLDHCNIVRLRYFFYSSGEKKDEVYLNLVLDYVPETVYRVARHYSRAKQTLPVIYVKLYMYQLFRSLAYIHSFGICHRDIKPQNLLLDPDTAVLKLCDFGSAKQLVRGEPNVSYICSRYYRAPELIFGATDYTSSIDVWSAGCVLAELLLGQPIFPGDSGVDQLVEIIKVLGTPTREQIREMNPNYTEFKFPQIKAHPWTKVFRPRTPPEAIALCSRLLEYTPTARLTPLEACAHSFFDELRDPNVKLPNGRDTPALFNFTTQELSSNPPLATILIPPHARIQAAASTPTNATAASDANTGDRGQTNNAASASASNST
Sequence of GSK-3α (Glycogen synthase kinase-3α) (P49840 whole entry, species assumed): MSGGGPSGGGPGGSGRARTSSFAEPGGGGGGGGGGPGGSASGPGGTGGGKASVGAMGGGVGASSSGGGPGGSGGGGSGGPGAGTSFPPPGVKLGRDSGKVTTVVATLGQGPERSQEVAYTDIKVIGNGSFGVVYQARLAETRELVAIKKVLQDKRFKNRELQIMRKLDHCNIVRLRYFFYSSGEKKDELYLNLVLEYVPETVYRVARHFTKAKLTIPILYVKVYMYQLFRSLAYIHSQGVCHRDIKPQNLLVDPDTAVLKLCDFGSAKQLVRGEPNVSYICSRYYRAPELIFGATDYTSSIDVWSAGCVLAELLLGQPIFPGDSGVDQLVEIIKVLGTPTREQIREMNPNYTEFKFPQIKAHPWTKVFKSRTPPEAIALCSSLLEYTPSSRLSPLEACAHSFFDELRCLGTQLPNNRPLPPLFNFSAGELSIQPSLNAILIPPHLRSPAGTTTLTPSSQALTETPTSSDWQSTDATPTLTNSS

solubility in other organic solvents ([1]; other organic solvents): not well soluble | solubility in pyridine and methanol ([1]; pyridine and methanol): dissolves in pyridine and methanol | solubility in water ([1]; water): dissolves in water | mTOR activity according to doses of NPS A ([2]; different doses of NPS A): no change | kinase screening result, mTOR [2, 12]: inhibited | IC50 [7]: 124 µM | kinase screening result, GSK-3β [7, 12]: inhibited | IC50 [10]: 140 µM | kinase screening result, GSK-3α [10, 12]: inhibited
SMILES: O=C([O-])c1ccc[n+](C2OC(COC(=O)c3ccc(O)cc3)C(O)C2O)c1 (centres unmarked) [NPS A, Neopetroside A]
regulation of candidate kinases of the first type [3]: did not regulate most | ATP synthesis [4]: stimulates; also recorded: up-regulated | intracellular ATP levels [4]: increases | glycolysis activity [5]: greatest | glycolysis capacity [5]: greatest | concentration up to which not toxic to the myocardial cells (MTT survival) [6]: ≤ 300 µM | respiratory control ratio (RCP) [8]: recovered | three-stage respiratory depression in mitochondria (OCR) [8]: significantly protected | cardiac rhythm ([9]; 10 μM NPS A during reperfusion): recovered | size of the heart infarction ([9]; 10 μM NPS A during reperfusion): significantly reduced | left ventricular pressure (LV pressure) ([9]; 10 μM NPS A for 30 minutes during reperfusion after 30 minutes global ischemia): effectively restored | OCR/ECAR ratio [11]: increased | basal ECAR (extracellular acidification rate) [11]: increased | basal OCR ([11]; 1 hour treatment): up-regulated; also recorded: increased | mitochondrial OCR ([11]; 1 hour treatment): up-regulated | oxidative phosphorylation ([11]; 1 hour treatment): up-regulated | respiration associated with ATP ([11]; 1 hour treatment): up-regulated
